Our source for the GI50 and TGI values is PubChem BioAssay (NCI).

Values joined by “and” are separate entries in the source; they are usually repeats but may differ in a detail not shown here. Equal entries are not always repeated.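 Assay format: 96-well plates, 48-hour exposure. GI50 = concentration required for 50% inhibition of growth. TGI: total growth inhibition.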

Some test systems named below: COLO 205 colon; DLD-1 colon; HCC-2998 colon; HOP-62 NSCLC; HOP-92 NSCLC; HT29 colon; LXFL 529 NSCLC; NCI/ADR-RES ovarian; OVCAR-3 ovarian; OVCAR-5 ovarian; P388 leukemia; P388/ADR leukemia; SF-295 CNS; SK-MEL-5 melanoma; SK-OV-3 ovarian; SN12K1 renal; T-47D breast.
Holding throughout (assay): NCI tumour cell line growth inhibition, 48 h

As to `COc1cccc2c1C(CO)N1C(C#N)C3CC(C(=O)O)C(C1C2)N3C` (configuration not stated), the GI50 in the test with COLO 205 colon was 0.112 µM; in the test with HCC-2998 colon, 3.14 µM; in the test on HOP-92 NSCLC, 0.422 µM; with NCI/ADR-RES ovarian, 0.194 µM; with OVCAR-3 ovarian it was 0.305 µM; in the test with OVCAR-5 ovarian, 0.183 µM. In addition, the GI50 was 0.42 µM with SF-295 CNS, 0.383 µM in the test on SK-MEL-5 melanoma, 2.6 µM in the test on SK-OV-3 ovarian and 0.135 µM in the test with T-47D breast. The TGI is 2.66 µM and 1.2 µM with COLO 205 colon; 9.07 µM in the test with DLD-1 colon; 8.21 µM and 2.78 µM with HCC-2998 colon; 8.15 µM and 3.73 µM in the test with HOP-62 NSCLC; 7.63 µM and > 18.4 µM in the test on HOP-92 NSCLC; 6.55 µM in the test on HT29 colon. In addition, the TGI in the test on LXFL 529 NSCLC was 6.67 µM; in the test with NCI/ADR-RES ovarian, 0.549 µM and 1.12 µM; in the test on P388 leukemia it was 6.42 µM; in the test with P388/ADR leukemia it was 1.09 µM; in the test on SF-295 CNS, 27.2 µM; in the test on SK-MEL-5 melanoma, 4.07 µM and 0.985 µM. The TGI in the test with SK-OV-3 ovarian is 8.34 µM and > 31.1 µM; in the test on SN12K1 renal, over 100 µM.
In the case of `CCCCCCCCCCCCCCCCCCOP(=O)([O-])OC1CC[N+](C)(C)CC1`, the GI50 in the test on COLO 205 colon was 1.42 µM; in the test with HOP-62 NSCLC, 3.2 µM; in the test with HOP-92 NSCLC, 2.1 µM; in the test with HT29 colon, 3.04 µM; in the test with NCI/ADR-RES ovarian, over 10 µM; with OVCAR-3 ovarian, over 10 µM. Also, the GI50 in the test with OVCAR-5 ovarian was 2.25 µM; in the test with SF-295 CNS it was 3.63 µM; in the test with T-47D breast it was 5.08 µM. Also, the TGI with COLO 205 colon was 9.43 µM and 15.8 µM; with DLD-1 colon, 22.4 µM; with HCC-2998 colon, 17.3 µM; with HOP-62 NSCLC it was > 10 µM and 20.7 µM; in the test with HOP-92 NSCLC it was 5.32 µM and 9.79 µM; in the test on HT29 colon, > 10 µM and 14.4 µM. The TGI with LXFL 529 NSCLC is 16.5 µM; with NCI/ADR-RES ovarian, > 10 µM and 28 µM; in the test on OVCAR-3 ovarian, > 10 µM and 23 µM; with OVCAR-5 ovarian, > 10 µM and 8.82 µM; in the test with SF-295 CNS, > 10 µM and 18.2 µM; in the test on SK-MEL-5 melanoma, 29.7 µM. Further, the TGI in the test with SK-OV-3 ovarian is > 10 µM and 19.1 µM; in the test with T-47D breast, > 10 µM and 36.9 µM.
